Where two headings read alike, the source gives them in different places.

In US7045532B2 (Millennium Pharmaceuticals, Inc., priority 1999, dated 2006) one finds Ki data, which are given here for 26 compounds.

This experiment has as its target T1, ACE-2 (Homo sapiens, UniProt Q9BYF1).
T1 construct: a stop codon inserted after the serine immediately preceding the transmembrane domain; made in house; host or cells: CHO K1 cells (transient transfection, purified from conditioned medium)
The experiment in a line: ACE-2 Competitive Substrate Assay (ACS Assay). Format: biochemical.

[1] abbreviates: Ki class, compounds tested in 5% DMSO, 12 compound concentrations, Ki=Kiapp/(1+[S]/Km), read-out: Human ACE-2 Activity.
Where [2] appears, read: Table 3, very good ACE-2 inhibiting compounds, species not given, read-out: ACE-2 Activity, Ki.

T1 sequence (Q9BYF1 18-740 limits assumed): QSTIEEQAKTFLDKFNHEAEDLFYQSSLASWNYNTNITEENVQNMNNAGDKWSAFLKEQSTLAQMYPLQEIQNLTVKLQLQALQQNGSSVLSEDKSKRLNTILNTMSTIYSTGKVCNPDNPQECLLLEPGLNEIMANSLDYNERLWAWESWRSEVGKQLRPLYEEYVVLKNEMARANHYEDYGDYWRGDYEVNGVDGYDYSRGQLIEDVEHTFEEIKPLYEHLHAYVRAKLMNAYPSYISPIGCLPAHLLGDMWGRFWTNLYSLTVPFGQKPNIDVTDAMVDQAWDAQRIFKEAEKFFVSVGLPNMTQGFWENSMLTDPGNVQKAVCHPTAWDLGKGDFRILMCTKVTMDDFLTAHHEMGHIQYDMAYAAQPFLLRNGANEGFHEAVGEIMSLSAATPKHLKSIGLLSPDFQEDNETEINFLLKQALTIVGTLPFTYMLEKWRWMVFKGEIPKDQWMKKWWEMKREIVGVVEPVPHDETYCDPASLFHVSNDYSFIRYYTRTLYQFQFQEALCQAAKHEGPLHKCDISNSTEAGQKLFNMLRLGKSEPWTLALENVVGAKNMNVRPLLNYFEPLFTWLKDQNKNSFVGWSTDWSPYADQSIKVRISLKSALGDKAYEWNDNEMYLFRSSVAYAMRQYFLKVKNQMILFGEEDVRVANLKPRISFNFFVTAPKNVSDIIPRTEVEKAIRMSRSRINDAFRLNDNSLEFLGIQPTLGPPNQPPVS

`C=CCOc1cccc(C[C@H](N[C@@H](CC(C)C)C(=O)O)C(=O)O)c1` [NB, S,S-2-[2-(3-Allyloxy-phenyl)-1-carboxy-ethylamino]-4-methyl pentanoic acid]: the Ki under setting [1] fell in the range of 100 to 500 nM.
Regarding `CC(C)C[C@H](N[C@@H](CN1CCN(c2cc(F)cc(F)c2)C1=O)C(=O)O)C(=O)O` [NC, 2-{1-Carboxy-2-[3-(3,5-difluoro-phenyl)-2-oxo-imidazolidin-1-yl]-ethylamino}-4-methyl-pentanoic acid], the Ki under setting [1] is more than 500 nM.
With `CC(C)C[C@H](N[C@@H](CNC(=O)c1cc2cc(Cl)ccc2[nH]1)C(=O)O)C(=O)O` [ND, 2-{1-Carboxy-2-[(5-chloro-1H-indole-2-carbonyl)-amino]-ethylamino}-4-methyl-pentanoic acid], the Ki under setting [1] is more than 500 nM.
For `CC(C)C[C@H](N[C@@H](Cc1ccc(-c2ccsc2)cc1)C(=O)O)C(=O)O` [NF, (S,S)-2-[1-Carboxy-2-(4-thiophen-3-yl-phenyl)-ethylamino]-4-methyl-pentanoic acid], the Ki under setting [1] was less than 100 nM and the Ki under setting [2] lay within 50 to 100 nM.
`CC(C)C[C@H](N[C@@H](Cc1ccc(-c2cc(Cl)cc(Cl)c2)cc1)C(=O)O)C(=O)O` [NG, (S,S)-2-[1-Carboxy-2-(3′,5′-dichloro-biphenyl-4-yl)-ethylamino]-4-methyl-pentanoic acid]: the Ki is less than 100 nM under setting [1] and less than 50 nM under setting [2].
As to `Cc1ccc(-c2ccc(C[C@H](N[C@@H](CC(C)C)C(=O)O)C(=O)O)cc2)cc1` [NH, (S,S)-2-[1-Carboxy-2-(4′-methyl-biphenyl-4-yl)-ethylamino]-4-methyl-pentanoic acid], the Ki is, setting by setting: under setting [1], less than 100 nM; under setting [2], less than 50 nM.
For `CC(C)C[C@H](N[C@@H](Cc1cncn1Cc1ccc(I)cc1)C(=O)O)C(=O)O` [NI, 2-[1-Carboxy-2-[3-(4-iodobenzyl)-3H-imidazol-4-yl]-ethylamino]-4-methyl-pentanoic acid] the same measures were less than 100 nM and less than 50 nM.
Turning to `CC(C)C[C@H](N[C@@H](Cc1cncn1Cc1cc(F)cc(F)c1)C(=O)O)C(=O)O` [NJ, (S,S) 2-{1-Carboxy-2-[3-(3,5-difluoro-benzyl)-3H-imidazol-4-yl]-ethylamino}-4-methyl-pentanoic acid], the Ki was less than 100 nM under setting [1] and less than 50 nM under setting [2].
Take `CC(C)C[C@H](N[C@@H](Cn1ccn(CCc2ccc(F)cc2)c1=O)C(=O)O)C(=O)O` [NK, 2-(1-Carboxy-2-[3-[2-(4-fluoro-phenyl)-ethyl]-2-oxo2,3-dihydro-imidazol-1-yl)-ethylamino]-4-methyl-pentanoic acid]: under setting [1], the Ki lay within 100 to 500 nM.
`CC(C)C[C@H](N[C@@H](Cn1ccn(CC2CCCCC2)c1=O)C(=O)O)C(=O)O` [NL, 2-[1-Carboxy-2-(3-cyclohexylmethyl-2-oxo-2,3-dihydro-imidazol-1-yl)-ethylamino]-4-methyl-pentanoic acid]: the Ki under setting [1] lay within 100 to 500 nM.
On to `CC(C)C[C@H](N[C@@H](Cc1cncn1Cc1cc(Cl)cc(Cl)c1)C(=O)O)C(=O)OC(C)(C)C` [NM, 2-[1-Carboxy-2-[3-(3,5-dichloro-benzyl)-3H-imidazol-4-yl]-ethylamino)4-methyl-pentanoic acidtert-butyl ester], for which the Ki was less than 100 nM under setting [1] and less than 50 nM under setting [2].
On to `Cc1ccc(-c2ccc(C[C@H](N[C@@H](CC(C)C)C(=O)O)C(=O)O)o2)cc1` [NO, (S,S)-2[1-Carboxy-2-(5-p-tolyl-furan-2-yl)-ethylamino]-4-methyl-pentanoic acid], for which the Ki under setting [1] was in the range of 100 to 500 nM.
In the case of `CC(C)C[C@H](N[C@@H](Cn1ccn(CCc2cccc(F)c2)c1=O)C(=O)O)C(=O)O` [NP, 2-(1-Carboxy-2-{3-[2-(3-fluoro-phenyl)-ethyl]-2-oxo2,3-dihydro-imidazol-1-yl]-ethylamino)-4-methyl-pentanoic acid], the Ki under setting [1] is 100 to 500 nM.
Turning to `CC(C)C[C@H](N[C@@H](Cn1ccn(Cc2ccc(F)cc2)c1=O)C(=O)O)C(=O)O` [NQ, 2-{1-Carboxy-2-[3-(4-fluoro-benzyl)-2-oxo-2,3-dihydro-imidazol-1-yl]-ethylamino}-4-methyl-pentanoic acid], under setting [1], the Ki lay in the range of 100 to 500 nM.
`CC(C)C[C@H](N[C@@H](Cc1ccc(-c2ccccc2)o1)C(=O)O)C(=O)O` [NR, (S,S)-2-[1-Carboxy-2-(5-phenyl-furan-2-yl)-ethylamino]-4-methyl-pentanoic acid]: the Ki under setting [1] lay in the range of 100 to 500 nM.
Take `CC(C)C[C@H](N[C@@H](Cc1ccc(-c2cc(Cl)cc(Cl)c2)o1)C(=O)O)C(=O)O` [NS, (S,S)-2-{1-Carboxy-2-[5-(3,5-dichlorophenyl)-furan-2-yl]-ethylamino}-4-methyl-pentanoic acid]: the Ki under setting [1] fell in the range of 100 to 500 nM.
The same measure, in the same setting: with `Cc1cc(C)cc(-c2ccc(C[C@H](N[C@@H](CC(C)C)C(=O)O)C(=O)O)o2)c1` [NT, (S,S)-2-{1-Carboxy-2-[5-(3,5-dimethyl-phenyl)-furan-2-yl]-ethylamino}-4-methyl-pentanoic acid] the figure was 100 to 500 nM.
Consider `CC(C)C[C@H](N[C@@H](Cc1ccc(-c2cc(F)cc(F)c2)o1)C(=O)O)C(=O)O` [NU, (S,S)-2-{1-Carboxy-2-[5-(3,5-difluoro-phenyl)-furan-2-yl]-ethylamino}-4-methyl-pentanoic acid], for which the Ki under setting [1] was more than 500 nM.
Consider `CC(C)C[C@H](N[C@@H](Cc1ccc(-c2ccsc2)o1)C(=O)O)C(=O)O` [NV, (S,S)-2-[1-Carboxy-2-(5-thiophen-3-yl-furan-2-yl)-ethylamino]-4-methyl-pentanoic acid], for which the Ki under setting [1] was more than 500 nM.
For `Cc1ccc2nc(NC(=O)C[C@H](N[C@@H](CC(C)C)C(=O)O)C(=O)O)sc2c1` [NW, 2-[1-Carboxy-2-(6-methyl-benzothiazol-2-ylcarbamoyl)-ethylamino]-4-methyl-pentanoic acid], the Ki reads like this: under setting [1], 100 to 500 nM; under setting [2], less than 50 nM.
Take `CC(C)C[C@H](N[C@@H](Cc1ccc(O)cc1)C(=O)O)C(=O)O` [NX, 2-[1-Carboxy-2-(4-hydroxy-phenyl)-ethylamino]-4-methyl-pentanoic acid]: the Ki under setting [1] is more than 500 nM.
For `CC(C)C[C@H](N[C@@H](Cc1cccc(OCc2cc(Cl)cc(Cl)c2)c1)C(=O)O)C(=O)O` [NY, 2-[1-Carboxy-2-[3-(3,5-dichloro-benzyloxy)-phenyl]-ethylamino]-4-methyl-pentanoic acid], the Ki is less than 100 nM under setting [1] and 50 to 100 nM under setting [2].
In the case of `CC(C)C[C@H](N[C@@H](Cc1cccc(OCc2ccncc2)c1)C(=O)O)C(=O)O` [NZ, S,S-2-{1-Carboxy-2-[3-(pyridin-4-ylmethoxy)-phenyl]-ethylamino}-4-methyl pentanoic acid], under setting [1], the Ki is more than 500 nM.
As to `CC(N[C@@H](Cc1ccccc1)C(=O)O)C(=O)O` (stereo partly shown) [O, 2-(1-Carboxy-ethylamino)-3-phenyl-propionic acid], the Ki (Ki class, compounds tested in 5% DMSO, 12 concentrations, read-out: Human ACE-2 Activity) was more than 500 nM.
Take `Cc1cc(C)cc(COc2cccc(C[C@H](N[C@@H](CC(C)C)C(=O)O)C(=O)O)c2)c1` [OA, 2-[1-Carboxy-2-[3-(3,5-dimethyl-benzyloxy)-phenyl]-ethylamino]-4-methyl-pentanoic acid]: the Ki under setting [1] was more than 500 nM.
Consider `CC(C)C[C@H](N[C@@H](Cc1cccc(OCc2ccc(Cl)cc2)c1)C(=O)O)C(=O)O` [OB, 2-[1-Carboxy-2-[3-(4-chloro-benzyloxy)-phenyl)-ethylamino]-4-methyl-pentanoic acid], for which the Ki under setting [1] lay within 100 to 500 nM.
